# Measured values: patent US5861475A, “Compositions and methods for the inhibition of phagocytes” (Research Corporation Technologies, Inc., priority 1996, dated 1999)
# Where no end group is shown, it is not given here.
# Columns and labels:
# PMN [1] = assay: PMN cytosolic calcium concentration (Indo-loaded PMN); assay type: cell-based, human
# [2] = test system: polymorphonuclear neutrophils (PMN); assay type: cell-based; conditions: 10 nM human recombinant C5a; cells concomitantly exposed to peptide and agonist; read-out: IC50 for C5a-induced chemotaxis
# Method: Whole blood was obtained from a normal human volunteer population and PMN were isolated by ficoll-hypaque gradient centrifugation followed dextran sedimentation, as described by Cooper et al., (1991).
# The degree of inhibition of PMN chemotaxis by natural purified inhibitor or synthetic peptides was determined as described by Cooper et al. (1991) using 100 nM formyl-methionyl-leucyl-phenylalanine (fMLP), 10 nM human recombinant C5a or 10 nM leukotriene B4 and multiwell chemotaxis chambers (Neuroprobe Inc., Bethesda, Md.) employing nitrocellulose membranes. Isoelectric focused fractions or HPLC elution fractions were diluted 1:1000 in a final concentration of the above agonists. Controls included buffer alone or C5a diluted in buffer alone.
# 22 μl of samples were placed in bottom wells of the chemotaxis chamber, a nitrocellulose membrane with 3 μm pores was overlaid as was a rubber gasket. […] Chemotaxis was assessed by comparing the maximal distance migrated to agonist alone or in the presence of an irrelevant peptide (μm minus migration to buffer alone) and comparing to the distance migrated to agonist plus elution fractions or synthetic peptides. The percentage of total cells migrating 10 μm increments from 0 to 120 μm was also determined by image analysis (Olympus Instruments) and treatment groups were compared to controls. […]
# PMN [3] = assay: PMN viability by LDH release
# Method: PMN viability after exposure to NIP (seq id no:1) or control peptide for varying amounts of time was assessed by measuring LDH release using a commercially available kit (Sigma).
compound,measurement,setting,value
COc1cc(N(CC(=O)OCOC(C)=O)CC(=O)OCOC(C)=O)c2nc(COc3cc(C)ccc3N(CC(=O)OCOC(C)=O)CC(=O)OCOC(C)=O)ccc2c1 [Quin 2 AM],buffering of rises in cytosolic calcium concentrations,"PMN [1]; 10 μM, after 1 μM fMLP stimulation",significantly buffered
"EGSYFFGDNA [NIP-Arg, Glu-Gly-Ser-Tyr-Phe-Phe-Gly-Asp-Asn-Ala]",IC50,[2],6 µM
"REGSYFFGDNA [NIP, Arg-Glu-Gly-Ser-Tyr-Phe-Phe-Gly-Asp-Asn-Ala]",IC50,[2],2 µM
same,[LDH] of supernatant,"PMN [3]; 5 μM, 5 min exposure",37.2 ± 6.3
same,[LDH] of supernatant,"PMN [3]; 5 μM, 15 min exposure",40.8 ± 3.7
same,[LDH] of supernatant,"PMN [3]; 5 μM, 30 min exposure",30.2 ± 4.25
same,[LDH] of supernatant,"PMN [3]; 5 μM, 60 min exposure",35 ± 5.5
same,cellular viability as determined by LDH release,PMN [3]; concentrations that inhibited chemotaxis and oxidant production,did not significantly alter
"SNRGFAYFDEG [Control peptide, Ser-Asn-Arg-Gly-Phe-Ala-Tyr-Phe-Asp-Glu-Gly, reference compound]",[LDH] of supernatant,"PMN [3]; 5 μM, 60 min exposure",39.2 ± 6.5
Triton [reference compound],[LDH] of supernatant,"PMN [3]; 0.1%, 5 min exposure",252 ± 6.5
pertussis toxin,ionomycin-induced rise in cytosolic calcium,PMN [1]; pertussis toxin pretreatment,no effect
same,rise in cytosolic calcium concentration induced by 1 μM FMLP,PMN [1]; pertussis toxin pretreatment,Attenuation
